# Assay results as given in US12428415B2, “Matriptase 2 inhibitors and uses thereof” (Disc Medicine, Inc., priority 2018, dated 2025).
# Molecular target: T1, Human Recombinant Matriptase 2 (Homo sapiens, UniProt Q8IU80)
# T1 construct: purchased Enzo Life Sciences (an in-house preparation was also used) ALX-201-752-1
# T1 sequence (Q8IU80 1-811): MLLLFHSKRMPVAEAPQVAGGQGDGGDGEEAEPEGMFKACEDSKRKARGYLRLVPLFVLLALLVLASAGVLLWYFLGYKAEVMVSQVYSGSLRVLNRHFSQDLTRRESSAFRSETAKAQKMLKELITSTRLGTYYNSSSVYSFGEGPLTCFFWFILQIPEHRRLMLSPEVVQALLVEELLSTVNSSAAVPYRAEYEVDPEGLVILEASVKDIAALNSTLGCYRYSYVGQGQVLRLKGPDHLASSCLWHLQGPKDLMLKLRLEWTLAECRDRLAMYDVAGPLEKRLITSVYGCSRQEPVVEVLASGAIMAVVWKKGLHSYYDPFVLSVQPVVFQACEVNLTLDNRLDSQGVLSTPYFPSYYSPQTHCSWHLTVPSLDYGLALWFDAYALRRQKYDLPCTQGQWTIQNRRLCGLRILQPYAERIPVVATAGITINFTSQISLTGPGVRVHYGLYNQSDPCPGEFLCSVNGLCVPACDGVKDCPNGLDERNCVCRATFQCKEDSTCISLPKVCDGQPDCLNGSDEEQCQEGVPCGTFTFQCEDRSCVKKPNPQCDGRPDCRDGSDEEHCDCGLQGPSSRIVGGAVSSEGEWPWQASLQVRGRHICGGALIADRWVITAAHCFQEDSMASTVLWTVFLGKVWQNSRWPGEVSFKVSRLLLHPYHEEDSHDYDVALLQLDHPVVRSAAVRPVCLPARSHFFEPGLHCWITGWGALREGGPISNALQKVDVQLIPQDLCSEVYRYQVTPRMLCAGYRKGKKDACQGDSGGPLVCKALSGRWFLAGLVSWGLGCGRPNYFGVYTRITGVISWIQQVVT
# Assay: Matriptase 2 fluorescence based inhibition assay, Method B (50 mM TRIS pH 7.5, 150 mM NaCl, 0.01% gelatin)
# Assay type: biochemical
# Conditions: 1 uM compound; Assay Used = B (Method B); read-out: Mar-2 % inhibition at 1 uM
# Summary of the method: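 Commercial (7 nM) or in-house (15 nM) enzyme preincubated 30 min with compound at 25° C, then 100 μM Boc-Gln-Ala-Arg-AMC added; fluorescence (Ex 360/Em 480 nm) read at 60 min. 1% DMSO final. IC50 from variable-slope sigmoidal fit of % inhibition.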
row,SMILES,inhibition at 1 µM
1,N=C(N)c1ccc2cc(C(=O)OCCNC(N)=O)n(Cc3cccc4ccccc34)c2c1 [Compound I-597],75 to 100%
2,"CCOC(=O)c1cc2ccc(C(=N)N)cc2n1Cc1cc(Oc2ncccn2)cc2ccccc12 [Compound I-598, Ethyl 6-carbamimidoyl-1-((3-(pyrimidin-2-yloxy)naphthalen-1-yl)methyl)-1H-indole-2-carboxylate]",75 to 100%
3,N=C(N)c1ccc2cc(C(=O)N[C@H]3CC[C@H](N)CC3)n(Cc3cc(Oc4ccccn4)cc4ccccc34)c2c1 [Compound I-599],75 to 100%
4,N=C(N)c1ccc2cc(C(=O)NCCO)n(Cc3cccc4ccccc34)c2c1 [Compound I-600],75 to 100%
5,CCOC(=O)c1cc2ccc(C(=N)N)cc2n1Cc1cccc2ccccc12 [Compound I-601],50 to 75%
6,COC(=O)NCCOC(=O)c1cc2ccc(C(=N)N)cc2n1Cc1cccc2ccccc12 [Compound I-602],50 to 75%
7,"CC(C)(C)OC(=O)Nc1cc2ccc(C(=N)N)cc2n1Cc1cc(S(=O)(=O)c2ccccc2)cc2ccccc12 [Compound I-603, tert-butyl (6-carbamimidoyl-1-((3-(phenylsulfonyl)naphthalen-1-yl)methyl)-1H-indol-2-yl)carbamate]",25 to 50%
8,N=C(N)c1ccc2cc(C(=O)NCC3(CN)CCCCC3)n(Cc3cccc4ccccc34)c2c1 [Compound I-604],75 to 100%
9,NCc1ccc2cc(C(=O)N[C@H]3CC[C@H](N)CC3)n(Cc3cc(Oc4ncccn4)cc4ccccc34)c2c1 [Compound I-605],50 to 75%
10,Cn1c(C(=O)O)c(Cc2cc(Oc3ccccc3)cc3ccccc23)c2cc(C(=N)N)ccc21 [Compound I-606],25 to 50%
11,CCOC(=O)c1cc2ccc(C(=N)NC(=O)OCC(C)C)cc2n1Cc1cc(Oc2ncccn2)cc2ccccc12 [Compound I-607],0 to 25%
12,N=C(N)c1ccc2cc(C(=O)N[C@H]3CC[C@H](N)CC3)n(Cc3cc(OS(=O)(=O)c4ccccc4)cc4ccccc34)c2c1 [Compound I-608],75 to 100%

# Same assay, conditions: 1 uM compound; Assay Used = B; read-out: Mar-2 % inhibition at 1 uM
row,SMILES,inhibition at 1 µM
1,Cc1ccnc(Oc2cc(Cn3c(C(=O)O)cc4ccc(C(=N)N)cc43)c3ccccc3c2)n1 [Compound I-566],25 to 50%
2,"N=C(N)c1ccc2cc(C(=O)O)n(Cc3cc(NS(=O)(=O)c4ccccc4)cc4ccccc34)c2c1 [Compound I-567, 6-carbamimidoyl-1-((3-(phenylsulfonamido)naphthalen-1-yl)methyl)-1H-indole-2-carboxylic Acid]",75 to 100%
3,N=C(N)c1ccc2cc(C(=O)OCCNC(N)=O)n(Cc3cc(Oc4ncccn4)cc4ccccc34)c2c1 [Compound I-568],75 to 100%
4,"N=C(N)c1cc(F)c2cc(C(=O)O)n(Cc3cc(Oc4ncccn4)cc4ccccc34)c2c1 [Compound I-569, 6-carbamimidoyl-4-fluoro-1-((3-(pyrimidin-2-yloxy)naphthalen-1-yl)methyl)-1H-indole-2-carboxylic Acid]",75 to 100%
5,Cc1cc(C)nc(Oc2cc(Cn3c(C(=O)O)cc4ccc(C(=N)N)cc43)c3ccccc3c2)n1 [Compound I-570],25 to 50%
6,N=C(N)c1ccc2cc(C(=O)O)n(Cc3cc(Oc4ncc(F)cn4)cc4ccccc34)c2c1 [Compound I-571],50 to 75%
7,N=C(N)c1ccc2cc(C(=O)Nc3nnn[nH]3)n(Cc3cc(Oc4ncccn4)cc4ccccc34)c2c1 [Compound I-572],50 to 75%
8,"N=C(N)c1ccc2cc(C(=O)Nc3ncccn3)n(Cc3cccc4ccccc34)c2c1 [Compound I-573, 6-carbamimidoyl-1-(naphthalen-1-ylmethyl)-N-(pyrimidin-2-yl)-1H-indole-2-carboxamide]",50 to 75%
9,COc1ccnc(Oc2cc(Cn3c(C(=O)O)cc4ccc(C(=N)N)cc43)c3ccccc3c2)n1 [Compound I-574],25 to 50%
10,CN(C)C(=O)Sc1cc(Cn2c(C(=O)O)cc3ccc(C(=N)N)cc32)c2ccccc2c1 [Compound I-575],0 to 25%
11,"N=C(N)c1ccc2c(F)c(C(=O)O)n(Cc3cccc4ccccc34)c2c1 [Compound I-577, 6-carbamimidoyl-3-fluoro-1-(naphthalen-1-ylmethyl)-1H-indole-2-carboxylic Acid]",50 to 75%
12,CNC(=O)c1cc2ccc(C(=N)N)cc2n1Cc1cc(Oc2ncccn2)cc2ccccc12 [Compound I-578],75 to 100%
13,"CC(N)c1ccc2cc(C(=O)N[C@H]3CC[C@H](N)CC3)n(Cc3cccc4ccccc34)c2c1 (stereo partly shown) [Compound I-580, N-((1r,4r)-4-aminocyclohexyl)-6-(1-aminoethyl)-1-(naphthalen-1-ylmethyl)-1H-indole-2-carboxamide]",0 to 25%
14,CC(C)COC(=O)NC(=N)c1ccc2cc(C(=O)OCc3ccccc3)n(Cc3cc(Oc4ncccn4)cc4ccccc34)c2c1 [Compound I-581],25 to 50%
15,N=C(N)c1ccc2cc(C(=O)NCCO)n(Cc3cc(Oc4ncccn4)cc4ccccc34)c2c1 [Compound I-582],75 to 100%
16,COC(=O)NCCOC(=O)c1cc2ccc(C(=N)N)cc2n1Cc1cc(Oc2ncccn2)cc2ccccc12 [Compound I-583],75 to 100%
17,Cn1nc(C(F)(F)F)c(C=O)c1Oc1cc(Cn2c(C(=O)O)cc3ccc(C(=N)N)cc32)c2ccccc2c1 [Compound I-584],0 to 25%
18,N=C(N)c1ccc2cc(C(=O)O)n(Cc3cc(S(=O)(=O)Nc4ccccc4)cc4ccccc34)c2c1 [Compound I-585],50 to 75%
19,CCOC(=O)c1cc2ccc(C(=N)NC(=O)OCC(C)C)cc2n1Cc1cc(Oc2ccsc2)cc2ccccc12 [Compound I-586],25 to 50%
20,COC(=O)NCCNC(=O)c1cc2ccc(C(=N)N)cc2n1Cc1cccc2ccccc12 [Compound I-587],75 to 100%
21,N=C(N)c1ccc2[nH]c(C(=O)O)c(Cc3cc(Oc4ccccc4)cc4ccccc34)c2c1 [Compound I-588],25 to 50%
22,N=C(N)c1ccc2cc(C(=O)O)n(Cc3cc(Oc4nccs4)cc4ccccc34)c2c1 [Compound I-589],75 to 100%
23,CN1CCC(CNC(=O)c2cc3ccc(C(=N)N)cc3n2Cc2cc(Oc3ncccn3)cc3ccccc23)CC1 [Compound I-590],75 to 100%
24,Cc1c(C(=O)N[C@H]2CC[C@H](N)CC2)n(Cc2cc(Oc3ncccn3)cc3ccccc23)c2cc(C(=N)N)ccc12 [Compound I-591],75 to 100%
25,CCOC(=O)c1cc2ccc(C(=N)N)cc2n1Cc1cc(Oc2ccsc2)cc2ccccc12 [Compound I-592],0 to 25%
26,N=C(N)c1ccc2cc(C(=O)NC3CCNCC3F)n(Cc3cccc4ccccc34)c2c1 (stereo not shown) [Compound I-593],75 to 100%
27,CN1CCC(NC(=O)c2cc3ccc(C(=N)N)cc3n2Cc2cc(Oc3ncccn3)cc3ccccc23)CC1 [Compound I-594],75 to 100%
28,CC(C)COC(=O)NC(=N)c1ccc2cc(C(=O)O)n(Cc3cc(Oc4ncccn4)cc4ccccc34)c2c1 [Compound I-595],25 to 50%
29,N=C(N)c1ccc2cc(C(=O)OCc3ccccc3)n(Cc3cc(Oc4ncccn4)cc4ccccc34)c2c1 [Compound I-596],25 to 50%

# Same assay, conditions: read-out: Mar-2 % inhibition at 1 uM
row,SMILES,inhibition at 1 µM
1,N=C(NC(=O)Oc1ccccc1)c1ccc2cc(C(=O)OCc3ccccc3)n(Cc3cc(Oc4ncccn4)cc4ccccc34)c2c1 [Compound I-576],0 to 25%
2,CCOC(=O)c1cc2ccc(C(=N)NC(=O)Oc3ccccc3)cc2n1Cc1cc(Oc2ccsc2)cc2ccccc12 [Compound I-579],0 to 25%
